Blank lines part the entries; values can stand above or below the molecule they belong to.
Legend:
non-muscle actin = assay: F-actin co-sedimentation assay, non-muscle actin; format: binding
Procedure: Muscle actin, non-muscle actin, α-actinin and pyrene actin were purchased from Cytoskeleton, Inc. Actin was diluted to working concentrations in G buffer (2 mM Tris HCl, pH 8.0, 0.2 mM ATP, 0.1 mM CaCl2, 0.5 mM DTT).
Polymerization of actin was induced by addition of 0.1 volume 10×KMEI buffer (50 mM KCl, 1 mM MgCl2, 1 mM EGTA, 10 mM imidazole HCl, pH 7.0) and incubation for >1 h at room temperature (RT). […] The supernatant was removed and the pellet resuspended in 100 μl of 1×KMEI buffer. The amount of peptide was measured in a Cary Eclipse Fluorescence Spectrophotometer with excitation/emission set for FITC at 495 nm/520 nm. The bound/total ratio was calculated as the signal from the pellet divided by the total signal. The Kd was obtained by fitting to a hyperbolic curve.

F-actin in MDCK cells = assay: Double staining of PFA fixed MDCK cells with Cy3-conjugated phalloidin; format: cell-based, canine; conditions: TIRF microscopy
From the text: (§1) TIRE images were captured on an iMic-stand from Till photonics with an 1.45 NA 100× objective from Olympus. A 300 mW Argon laser and a 20 mW DPSS 561 nm laser were selected through an AOTF. A 2-axis scan head (Yanus II) was used to digitally adjust the TIRE angle. Images were collected with a cooled Imago QE CCD camera. Acquisition was controlled by the TILLvisION software package. Confocal images were collected on a standard Leica SP2 setup. Epifluorescence images were collected on a Zeiss axiovert 200M stand equipped with a climate control chamber from EMBL.

[1] = Solubility of peptide in PBS; format: physicochemical
[2] = test system: MDCK and mouse embryonic fibroblasts; assay: Cytotoxicity, morphology and growth of transfected cells; format: cell-based; conditions: transiently and stably transfected cells
Procedure: (§2) Mouse primary dendritic cells were generated from flushed bone marrow suspension as described previously^30. At day 8-10 cells were nucleofected using the primary mouse T cell kit and the Amaxa nucleoporator according to the manufacturers recommendations and immediately after transfection 200 ng/ml LPS were added over night and cells were subsequently sorted into GFP positive and negative fractions by using fluorescent activated cell sorting. MDCK cells and mouse embryonic Fibroblasts were grown according to standard procedures and transfected using lipofectamine.

[3] = test system: mouse embryonic fibroblasts; assay: Lamellipodial retrograde actin flow in fibroblasts; format: cell-based; conditions: transfected fibroblasts; indistinguishable from untransfected cells
From the text: as §1
All image processing steps were performed in Metamorph (Molecular Devices). For visualization purposes sequences were routinely processed by sequential application of a local background subtraction filter and a 3×3 gauss low pass filter. Color overlays and kymographs were created with the respective functions in Metamorph.
as §2, with “MDCK cells and mouse embryonic Fibroblasts were grown according to standard procedures and transfected using lipofectamine.” left out

mouse dendritic cells = assay: Chemotactic dendritic cell migration in 3-dimensional collagen matrix; format: cell-based; conditions: CCL19 gradient
Procedure: as §2
PureCol™ gels containing mature dendritic cells were cast as described previously. Gels were overlayed with 50 μl of 0.6 μg/ml CCL19 (R&D Systems) in RPMI, 10% FCS and imaged on an inverted Axiovert 40 (Zeiss) microscopes, equipped with custom built climate chambers (5% CO2, 37° C., humidified). Under agarose dendritic cell migration was performed as described^31. Briefly, dendritic cells were added into wells punched into an agarose layer. Recombinant CCL19 was added into the adjacent well and, following the chemokine gradient, the cells entered the space between agarose and coverslip. Chemotaxing cells were subsequently imaged with TIRF microscopy.

[4] = test system: primary rat hippocampal neurons; assay: Neuronal polarization of transfected hippocampal neurons; format: cell-based; conditions: mock transfected cells 69±9%
Procedure: Primary hippocampal neurons were isolated from rat embryos as previously described. Briefly, hippocampi derived from E18 rats were dissected, trypsinized, and dissociated. Directly after dissociation, 5×10^5 hippocampal neurons were transfected by the Amaxa nucleofector system using 3 μg of highly purified plasmid DNA of pEGFP-Lifeact, pEGFP-actin or pEGFP-N2. The neurons were then immediately plated onto poly-L-lysine-coated glass coverslips in 6 cm petri dishes containing minimal essential medium (MEM) and 10% heat-inactivated horse serum. The cells were kept in 5% CO2 at 36.5° C. 6-12 hrs after plating the glass coverslips were then transferred into 6 cm petri dishes containing astrocytes in MEM and N2 supplements and kept in culture for 2DIV.
Neurons were categorized into three stages: neurons with a single axon, multiple axons or no axon. A neurite length >35 μm was used as threshold to define the axon. Developmental stages were observed by live cell microscopy as described.

Kd (non-muscle actin): 5.4 ± 2.6 µM
Molecule: CC[C@H](C)[C@H](NC(=O)[C@H](CC(C)C)NC(=O)[C@H](CC(=O)O)NC(=O)[C@H](C)NC(=O)[C@@H](NC(=O)CNC(=O)[C@H](CCSC)NC(=S)Nc1ccc2c(c1)C(=O)OC21c2ccc(O)cc2Oc2cc(O)ccc21)C(C)C)C(=O)N[C@@H](CCCCN)C(=O)N[C@@H](CCCCN)C(=O)N[C@@H](Cc1ccccc1)C(=O)N[C@@H](CCC(=O)O)C(=O)N[C@@H](CO)C(=O)N[C@H](C(=O)N[C@@H](CO)C(=O)N[C@@H](CCCCN)C(=O)N[C@@H](CCC(=O)O)C(=O)N[C@@H](CCC(=O)O)C(=O)O)[C@@H](C)CC [F-Lifeact]
overlap with phalloidin staining (F-actin in MDCK cells): nearly complete overlap

solubility in PBS [1]: not soluble in PBS
Molecule: CC[C@H](C)[C@H](NC(=O)[C@H](CC(C)C)NC(=O)[C@H](CC(=O)O)NC(=O)[C@H](C)NC(=O)[C@@H](NC(=O)CNC(=O)[C@@H](N)CCSC)C(C)C)C(=O)N[C@@H](CCCCN)C(=O)N[C@@H](CCCCN)C(=O)N[C@@H](Cc1ccccc1)C(=O)N[C@@H](CCC(=O)O)C(=O)N[C@@H](CO)C(=O)N[C@H](C(=O)N[C@@H](CO)C(=O)N[C@@H](CCCCN)C(=O)N[C@@H](CCC(=O)O)C(=O)N[C@@H](CCC(=O)O)C(=O)O)[C@@H](C)CC [Lifeact]

Molecule: Lifeact-G: Lifeact-GFP fusion expressed from pEGFP-N1 backbone under the CMV promoter
signs of cytotoxicity [2]: no signs of cytotoxicity | speed of retrograde flow in lamellipodia [3]: 4 μm/min | effect on speed of chemotactic dendritic cell migration (mouse dendritic cells): no effect | cells formed one axon [4]: 60.1±0.2%

Source: patent publication US9255128B2, “Nucleic acid for determining actin structures in living cells” (Max-Planck-Gesellschaft zur Forderung der Wissenschaften …, priority 2007, dated 2016)
